How the values were obtained:
[1] = tested on: P. aeruginosa T3SS-mediated secretion (exoT-luxCDABE reporter strain MDM852); assay: Luciferase (exoT-lux) transcriptional reporter assay of T3SS-mediated secretion; type: cell-based, Pseudomonas aeruginosa; details: read-out: LUX Sec IC50; Table 1
Excerpt: Luciferase Transcriptional Reporter Assay of T3SS-Mediated Secretion with a Luminescent Signal.
A transcriptional fusion of the Photorhabdus luminescens lux operon (luxCDABE) to P. aeruginosa PAO1 T3SS effector gene exoT (PA0044) was constructed and used to build strain MDM852 as described previously (Aiello et al., 2010, Antimicrob Agents Chemother, 54:1988-1999). Induction of T3SS operons by Ca^++ depletion due to EGTA addition results in secretion of the T3SS negative regulator ExsE and the production of high levels of T3SS components including the luxCDABE gene products, which results in luminescence that is easily detected by a microplate reader. Inhibition of T3SS-mediated secretion of the negative regulator ExsE by a small molecule inhibitor causes reduced production of luxCDABE gene products and reduced luminescence. For inhibitor IC50 testing, compounds were added to a 96-well microplate in a concentration dilution series. Reporter strain MDM852 was grown at 37° C. in LBG to OD600 ~0.025-0.05, transferred into the microplate (50 uL/well) containing test compounds and EGTA (5 uL of 0.1 M stock solution), which was covered with a translucent gas-permeable seal (Abgene, Inc., Cat. No. AB-0718). […] Plates were incubated at room temperature for 300 min. Then, luminescence was measured in an Envision Multilabel microplate reader (PerkinElmer). The screening window coefficient, Z′-factor (see Zhang, et al., 1999, J. Biomol. Screen., 4:67-73), defined as the ratio of the positive and negative control separation band to the signal dynamic range of the assay, averaged 0.7 for the assay.

[2] = Mammalian cytotoxicity (CC50), MTS conversion; type: cell-based, human; details: human, HeLa cells, Table 1; HeLa; read-out: Cytotox-HeLa CC50
Procedure: Determination of Mammalian Cytotoxicity.
Following incubation for 3 days at 37° C. in VP-SFM, cell viability was measured with the vital tetrazolium salt stain 3-(4,5-dimethylthiazol-2-yl)-2,5 diphenyltetrazolium bromide according to the manufacturer's instructions (Promega, Madison, Wisconsin). Values were determined in triplicate using dilutions of inhibitory compound from 100 μM to 0.2 μM.

[3] = Kinetic aqueous solubility (nephelometric assay); type: physicochemical; details: Table 1
Excerpt: Solubility. The maximum aqueous solubility of analogs will be initially determined by nephelometry using a published method (44).

hERG = hERG (Homo sapiens, UniProt Q12809); assay: hERG inhibition
CYP450 1A2 = CYP450 1A2 (Homo sapiens, UniProt P05177); assay: Cytochrome P450 inhibition, CYP1A2 (Eurofins Panlabs panel); type: in vitro ADME; details: assayed at 10 μM
Procedure: (§1) Cytochrome P450 Inhibition.
(§2) Assessment of off-target effects of priority compounds. To assess potential off-target effects, we will evaluate prioritized hits validated by in vivo testing in the Eurofins Panlabs HitProfilingScreen+CYP450 assay panel, which is performed by Eurofins as a fee for service. The assay panel of consists of assays for 30 receptors and transporters plus the five major CYP450 enzymes (1A2, 2C19, 2C9, 2D6, 3A4).

CYP450 2C19 = CYP450 2C19 (Homo sapiens, UniProt P33261); assay: Cytochrome P450 inhibition, CYP2C19 (Eurofins Panlabs panel); type: in vitro ADME; details: assayed at 10 μM
Procedure: as §1, §2

CYP450 2C9 = CYP450 2C9 (Homo sapiens, UniProt P11712); assay: Cytochrome P450 inhibition, CYP2C9 (Eurofins Panlabs panel); type: in vitro ADME; details: assayed at 10 μM
Procedure: as §1, §2

CYP450 2D6 = CYP450 2D6 (Homo sapiens, UniProt P10635); assay: Cytochrome P450 inhibition, CYP2D6 (Eurofins Panlabs panel); type: in vitro ADME; details: assayed at 10 μM
Procedure: as §1, §2

CYP450 3A4 = CYP450 3A4 (Homo sapiens, UniProt P08684); assay: Cytochrome P450 inhibition, CYP3A4 (Eurofins Panlabs panel); type: in vitro ADME; details: assayed at 10 μM
Procedure: as §1, §2

[4] = molecular target: panel of human cytochrome P450s, receptors, and ion channels (Homo sapiens, UniProt P02708); details: assayed at 10 μM
[5] = molecular target: panel of human cytochrome P450s, receptors, and ion channels (Homo sapiens, UniProt P07550); details: assayed at 10 μM
[6] = molecular target: panel of human cytochrome P450s, receptors, and ion channels (Homo sapiens, UniProt P08172); details: assayed at 10 μM
[7] = molecular target: panel of human cytochrome P450s, receptors, and ion channels (Homo sapiens, UniProt P14416); details: assayed at 10 μM
[8] = molecular target: panel of human cytochrome P450s, receptors, and ion channels (Homo sapiens, UniProt P20309); details: assayed at 10 μM
[9] = molecular target: panel of human cytochrome P450s, receptors, and ion channels (Homo sapiens, UniProt P21728); details: assayed at 10 μM
[10] = molecular target: panel of human cytochrome P450s, receptors, and ion channels (Homo sapiens, UniProt P29274); details: assayed at 10 μM
[11] = molecular target: panel of human cytochrome P450s, receptors, and ion channels (Homo sapiens, UniProt P35372); details: assayed at 10 μM
[12] = molecular target: panel of human cytochrome P450s, receptors, and ion channels (Homo sapiens, UniProt Q99720); details: assayed at 10 μM
[13] = molecular target: panel of human cytochrome P450s, receptors, and ion channels (Rattus norvegicus, UniProt P15823); details: assayed at 10 μM
[14] = tested on: panel of human cytochrome P450s, receptors, and ion channels
[15] = tested on: panel of human cytochrome P450s (1A2, 2C19, 2C9, 2D6, 3A4), receptors, transporters and ion channels; assay: in vitro

Chain of hERG (Q12809 whole entry): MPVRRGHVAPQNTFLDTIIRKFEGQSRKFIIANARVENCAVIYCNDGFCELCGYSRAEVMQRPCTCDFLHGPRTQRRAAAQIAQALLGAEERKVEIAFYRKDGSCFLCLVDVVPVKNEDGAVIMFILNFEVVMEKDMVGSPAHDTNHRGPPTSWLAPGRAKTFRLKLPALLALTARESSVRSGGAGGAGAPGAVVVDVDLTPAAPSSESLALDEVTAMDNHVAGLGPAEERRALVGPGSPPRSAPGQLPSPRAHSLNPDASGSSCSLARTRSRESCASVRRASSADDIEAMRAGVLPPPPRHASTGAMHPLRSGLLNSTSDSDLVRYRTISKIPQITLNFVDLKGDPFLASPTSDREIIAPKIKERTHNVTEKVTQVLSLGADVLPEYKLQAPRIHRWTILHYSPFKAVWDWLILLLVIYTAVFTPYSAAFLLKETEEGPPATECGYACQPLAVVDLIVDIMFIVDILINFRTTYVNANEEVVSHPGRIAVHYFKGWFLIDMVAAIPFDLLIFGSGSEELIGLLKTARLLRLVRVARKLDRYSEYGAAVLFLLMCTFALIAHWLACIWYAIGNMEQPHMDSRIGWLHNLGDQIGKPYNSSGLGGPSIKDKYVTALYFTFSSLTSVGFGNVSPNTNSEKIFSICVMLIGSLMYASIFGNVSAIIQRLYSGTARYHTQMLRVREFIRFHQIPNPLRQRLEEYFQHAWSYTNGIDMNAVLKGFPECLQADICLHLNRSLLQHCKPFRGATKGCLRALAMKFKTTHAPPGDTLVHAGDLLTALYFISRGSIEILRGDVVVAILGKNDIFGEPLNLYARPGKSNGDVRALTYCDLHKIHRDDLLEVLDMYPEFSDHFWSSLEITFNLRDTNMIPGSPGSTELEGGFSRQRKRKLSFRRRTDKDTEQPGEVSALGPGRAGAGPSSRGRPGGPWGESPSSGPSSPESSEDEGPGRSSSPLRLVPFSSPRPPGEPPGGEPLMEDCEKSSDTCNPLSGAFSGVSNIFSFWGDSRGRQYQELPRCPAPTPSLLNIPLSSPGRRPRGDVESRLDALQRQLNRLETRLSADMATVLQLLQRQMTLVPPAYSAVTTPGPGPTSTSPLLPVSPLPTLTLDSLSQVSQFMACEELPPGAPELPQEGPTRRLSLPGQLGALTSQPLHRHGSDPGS
Chain of panel of human cytochrome P450s, receptors, and ion channels (Homo sapiens, UniProt P20309) (P20309 whole entry): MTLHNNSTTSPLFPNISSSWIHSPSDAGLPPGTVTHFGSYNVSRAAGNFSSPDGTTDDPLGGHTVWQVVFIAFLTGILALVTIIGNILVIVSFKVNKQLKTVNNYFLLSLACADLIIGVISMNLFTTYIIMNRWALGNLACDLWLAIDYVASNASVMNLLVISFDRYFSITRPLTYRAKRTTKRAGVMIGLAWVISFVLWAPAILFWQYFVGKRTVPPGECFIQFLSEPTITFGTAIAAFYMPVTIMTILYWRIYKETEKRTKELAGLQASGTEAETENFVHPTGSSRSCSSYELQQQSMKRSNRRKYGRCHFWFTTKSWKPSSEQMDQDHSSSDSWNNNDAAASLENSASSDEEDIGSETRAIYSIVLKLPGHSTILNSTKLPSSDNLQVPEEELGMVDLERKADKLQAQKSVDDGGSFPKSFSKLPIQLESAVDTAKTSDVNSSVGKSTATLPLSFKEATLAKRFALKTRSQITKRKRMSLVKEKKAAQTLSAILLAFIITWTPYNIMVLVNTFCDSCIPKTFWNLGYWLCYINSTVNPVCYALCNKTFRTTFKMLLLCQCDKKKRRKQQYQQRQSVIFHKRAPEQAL
Chain of panel of human cytochrome P450s, receptors, and ion channels (Homo sapiens, UniProt Q99720) (Q99720 whole entry): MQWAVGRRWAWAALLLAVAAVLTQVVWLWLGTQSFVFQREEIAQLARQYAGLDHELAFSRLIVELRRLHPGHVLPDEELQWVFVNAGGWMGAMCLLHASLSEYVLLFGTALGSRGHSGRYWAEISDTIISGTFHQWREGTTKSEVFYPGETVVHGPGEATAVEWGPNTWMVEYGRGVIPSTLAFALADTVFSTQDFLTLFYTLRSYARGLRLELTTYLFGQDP
Chain of CYP450 1A2 (P05177 whole entry): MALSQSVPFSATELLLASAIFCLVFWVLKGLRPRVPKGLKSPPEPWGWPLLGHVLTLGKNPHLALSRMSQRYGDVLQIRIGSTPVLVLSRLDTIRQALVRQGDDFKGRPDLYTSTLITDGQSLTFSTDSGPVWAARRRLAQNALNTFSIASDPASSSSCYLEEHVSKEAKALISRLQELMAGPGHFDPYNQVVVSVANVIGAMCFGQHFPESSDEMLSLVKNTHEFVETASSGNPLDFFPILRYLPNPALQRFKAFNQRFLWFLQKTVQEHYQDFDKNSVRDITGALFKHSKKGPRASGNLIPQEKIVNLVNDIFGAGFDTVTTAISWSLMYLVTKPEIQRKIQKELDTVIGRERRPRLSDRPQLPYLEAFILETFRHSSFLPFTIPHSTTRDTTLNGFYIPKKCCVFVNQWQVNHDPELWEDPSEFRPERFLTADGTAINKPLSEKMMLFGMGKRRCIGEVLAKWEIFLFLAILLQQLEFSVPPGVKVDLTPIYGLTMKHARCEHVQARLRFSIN
Chain of panel of human cytochrome P450s, receptors, and ion channels (Homo sapiens, UniProt P08172) (P08172 whole entry): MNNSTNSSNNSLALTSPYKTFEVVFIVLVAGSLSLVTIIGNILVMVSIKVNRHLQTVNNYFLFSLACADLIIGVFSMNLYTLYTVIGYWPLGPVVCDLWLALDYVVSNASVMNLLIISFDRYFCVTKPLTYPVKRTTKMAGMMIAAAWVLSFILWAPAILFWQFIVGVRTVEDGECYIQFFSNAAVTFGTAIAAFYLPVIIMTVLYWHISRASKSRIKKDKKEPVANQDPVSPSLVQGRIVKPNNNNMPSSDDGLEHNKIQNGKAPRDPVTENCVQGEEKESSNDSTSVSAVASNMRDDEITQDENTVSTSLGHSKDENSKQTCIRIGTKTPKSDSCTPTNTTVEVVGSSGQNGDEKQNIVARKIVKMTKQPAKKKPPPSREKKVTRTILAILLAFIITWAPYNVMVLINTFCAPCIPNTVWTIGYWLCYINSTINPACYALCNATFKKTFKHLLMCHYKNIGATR
Chain of panel of human cytochrome P450s, receptors, and ion channels (Homo sapiens, UniProt P29274) (P29274 whole entry): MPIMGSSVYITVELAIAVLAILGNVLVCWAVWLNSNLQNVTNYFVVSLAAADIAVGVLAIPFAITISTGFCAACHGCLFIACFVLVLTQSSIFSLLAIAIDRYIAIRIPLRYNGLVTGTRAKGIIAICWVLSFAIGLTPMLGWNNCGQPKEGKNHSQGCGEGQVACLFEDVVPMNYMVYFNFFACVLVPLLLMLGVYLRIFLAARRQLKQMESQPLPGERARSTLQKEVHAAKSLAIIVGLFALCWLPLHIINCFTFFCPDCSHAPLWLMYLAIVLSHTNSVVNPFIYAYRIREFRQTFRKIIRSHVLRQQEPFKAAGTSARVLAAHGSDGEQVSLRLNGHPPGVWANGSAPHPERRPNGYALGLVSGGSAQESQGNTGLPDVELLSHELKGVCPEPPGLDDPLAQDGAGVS
Chain of panel of human cytochrome P450s, receptors, and ion channels (Homo sapiens, UniProt P14416) (P14416 whole entry): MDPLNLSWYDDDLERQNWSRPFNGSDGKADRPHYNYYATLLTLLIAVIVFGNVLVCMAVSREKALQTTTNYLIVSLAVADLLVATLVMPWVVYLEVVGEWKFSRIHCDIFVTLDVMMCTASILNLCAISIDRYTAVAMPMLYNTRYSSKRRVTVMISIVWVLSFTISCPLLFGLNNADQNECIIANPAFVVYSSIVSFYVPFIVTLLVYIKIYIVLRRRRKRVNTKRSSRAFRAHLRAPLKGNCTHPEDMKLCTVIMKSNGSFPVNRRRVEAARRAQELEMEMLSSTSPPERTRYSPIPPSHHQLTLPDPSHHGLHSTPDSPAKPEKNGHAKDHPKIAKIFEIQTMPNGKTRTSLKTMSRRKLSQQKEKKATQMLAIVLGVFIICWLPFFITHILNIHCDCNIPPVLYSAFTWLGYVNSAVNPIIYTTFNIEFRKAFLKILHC
Chain of CYP450 2D6 (P10635 whole entry): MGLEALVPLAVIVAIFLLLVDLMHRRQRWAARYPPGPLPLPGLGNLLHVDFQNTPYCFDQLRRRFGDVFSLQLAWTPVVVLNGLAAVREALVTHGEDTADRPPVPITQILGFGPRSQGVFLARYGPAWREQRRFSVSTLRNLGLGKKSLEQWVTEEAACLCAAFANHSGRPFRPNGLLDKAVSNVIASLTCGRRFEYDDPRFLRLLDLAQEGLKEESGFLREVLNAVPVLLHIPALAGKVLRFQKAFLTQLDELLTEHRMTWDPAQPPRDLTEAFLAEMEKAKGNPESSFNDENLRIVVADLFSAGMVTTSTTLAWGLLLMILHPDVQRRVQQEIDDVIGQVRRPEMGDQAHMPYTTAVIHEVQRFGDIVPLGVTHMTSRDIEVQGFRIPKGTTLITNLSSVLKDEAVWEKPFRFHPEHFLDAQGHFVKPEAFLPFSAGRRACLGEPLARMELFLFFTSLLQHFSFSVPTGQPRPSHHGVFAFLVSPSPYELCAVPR
Chain of CYP450 2C9 (P11712 whole entry): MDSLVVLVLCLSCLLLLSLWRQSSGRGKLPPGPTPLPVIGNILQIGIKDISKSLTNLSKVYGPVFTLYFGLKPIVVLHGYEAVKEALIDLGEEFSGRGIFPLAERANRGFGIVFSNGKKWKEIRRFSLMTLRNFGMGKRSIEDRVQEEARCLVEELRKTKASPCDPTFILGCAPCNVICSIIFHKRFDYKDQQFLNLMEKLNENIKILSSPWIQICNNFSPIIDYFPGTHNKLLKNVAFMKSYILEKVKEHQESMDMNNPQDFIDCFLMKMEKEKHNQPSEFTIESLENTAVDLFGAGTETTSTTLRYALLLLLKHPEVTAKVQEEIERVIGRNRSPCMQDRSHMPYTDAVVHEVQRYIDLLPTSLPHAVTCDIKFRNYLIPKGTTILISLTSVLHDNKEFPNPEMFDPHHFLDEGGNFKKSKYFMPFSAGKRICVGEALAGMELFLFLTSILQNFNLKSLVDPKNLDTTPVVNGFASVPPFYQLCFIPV

Work on `CCC(Oc1ccc(Cl)c(Cl)c1Cl)C(=O)NCc1ccc(F)cc1` (centres unmarked) [MBX-4532] yielded an IC50 [1] of 1.63 µM, a CC50 at 3 days [2] of over 200 µM and a Sol [3] of 25 µM. The IC50 (hERG; Table 1, read-out: hERG INH IC50) was over 100 µM, the “Potassium Channel hERG” value (hERG; assayed at 10 μM) was 26 and the “CYP450, 1A2” value (CYP450 1A2) was 24. The “CYP450, 2C19” value (CYP450 2C19) was 80, the “CYP450, 2C9” value (CYP450 2C9) was −30 and the “CYP450, 2D6” value (CYP450 2D6) was 0. The “CYP450, 3A4” value (CYP450 3A4) was 13, the “Nicotinic Acetylcholine α1, Bungarotoxin” value [4] was −17 and the “Adrenergic β2” value [5] was 14. The “Muscarinic M2” value [6] was 23, the “Dopamine D2S” value [7] was 11 and the “Muscarinic M3” value [8] was 8. The “Dopamine D1” value [9] was 0, the “Adenosine A2A” value [10] was 10 and the “Opiate μ (OP3, MOP)” value [11] was 26. The “Sigma σ1” value [12] was 70, the “Adrenergic α1B” value [13] was 6 and the “Calcium Channel L-Type, Dihydropyridine” value ([14]; assayed at 10 μM) was 56. The “GABAA, Flunitrazepam, Central” value ([14]; assayed at 10 μM) was −1, the “GABAA, Muscimol, Central” value ([14]; assayed at 10 μM) was 2 and the “Glutamate, NMDA, Phencyclidine” value ([14]; assayed at 10 μM) was 29. For the same molecule, the “Imidazoline I2, Central” value ([14]; assayed at 10 μM) was 27, the “Nicotinic Acetylcholine αβ4” value ([14]; assayed at 10 μM) was 7 and the “Phorbol Ester” value ([14]; assayed at 10 μM) was 5. For the same molecule, the “Potassium Channel [KATP]” value ([14]; assayed at 10 μM) was 0, the Rolipram ([14]; assayed at 10 μM) was 23 and the “Sodium Channel, Site 2” value ([14]; assayed at 10 μM) was 39. For the same molecule, the “specificity vs mammalian receptors and enzymes, including hERG” value ([14]; assessment in text) was “not specific enough” and the inhibition at 10 µM [15] was over 50%.

— patent publication US20260248774A1, “INHIBITORS OF BACTERIAL TYPE III SECRETION SYSTEM” (MICROBIOTIX, INC., priority 2022, published 2026)
